# Values of other authors as cited in patent US10332616B2, “Movable type method applied to protein-ligand binding” (University of Florida Research Foundation, Inc., priority 2013, dated 2019).
# Like-named read-outs stand apart in the source and are kept apart here.
# [1] = experimental solvation free energy, neutral compounds test set
# [2] = aqueous solvation free energy, charged compounds (ions)
# [3] = experimental solvation free energy, test set with 372 neutral compounds
Structure (SMILES),Exp. ΔGsolv [1],Exp. ΔGsolv [3],also measured
CN1CCOCC1 [Compound 0227Nme],-6.34 kcal/mol,,
"COc1ccc(N)cc1 [i093, 4-methoxyaniline, reference compound]",,,Exp. ΔGsolv [2]: -71.20 kcal/mol
O=C1NC(=O)c2ccccc21 [test2025],,-9.61 kcal/mol,
Cl/C=C/Cl [Compound 0172Edi],,-0.76 kcal/mol,
FC(F)(Cl)Cl [Compound 0421dfl],,1.69 kcal/mol,
Clc1ccccc1-c1cccc(Cl)c1Cl [Compound 0416dcl],,-1.99 kcal/mol,
C1CCOCC1 [Compound 0244tet],-3.12 kcal/mol,,
C=CCBr [Compound 0417brp],,-0.86 kcal/mol,
CCCCBr [Compound 0184bro],,-0.41 kcal/mol,
CCCC(C)Cl (stereo not drawn) [Compound 0411chp],,0.07 kcal/mol,
CCOP(=S)(OCC)Oc1ccc(Cl)cc1Cl [Compound 0438pho],-3.86 kcal/mol,,
CCOc1ccc(NC(C)=O)cc1 [test3005],-10.91 kcal/mol,,
CCCCCCO [Compound 0054hex],-4.36 kcal/mol,,
Cl[C@H]1[C@H](Cl)[C@@H](Cl)[C@@H](Cl)[C@H](Cl)[C@H]1Cl [test1035],,-5.4 kcal/mol,
CCC(C)c1cc([N+](=O)[O-])cc([N+](=O)[O-])c1O (stereo not drawn) [test1028],,-6.2 kcal/mol,
CC(C)OC(C)C [Compound 0242dii],-0.53 kcal/mol,,
CCBr [Compound 0180bro],,-0.7 kcal/mol,
Cc1ccccc1C [Compound 0038oxy],,-0.9 kcal/mol,
CCCC(=O)O [Compound 0088but],-6.36 kcal/mol,,
CCOC(C)=O [Compound 0095eth],-3.1 kcal/mol,,

Structure (SMILES),Exp. ΔGsolv [1],Exp. ΔGsolv [3],also measured
Cc1cccc(O)c1 [Compound 0056mcr],-5.49 kcal/mol,,
C1COCCN1 [Compound 0149mor],-7.17 kcal/mol,,
COP(=O)(OC)OC=C(Cl)Cl [Compound 0433pho],,-6.61 kcal/mol,
COC(=O)c1ccccc1S(=O)(=O)NC(=O)Nc1nc(C)nc(OC)n1 [test1039],-15.5 kcal/mol,,
C=CCCl [Compound 0170chl],,-0.57 kcal/mol,
CCSSCC [Compound 0223die],-1.63 kcal/mol,,
CCOP(=S)(OCC)SC(CCl)N1C(=O)c2ccccc2C1=O (stereo not drawn) [test1023],-5.7 kcal/mol,,
C1CCNC1 [Compound 0108pyr],-5.48 kcal/mol,,
CNC(=O)O/N=C/C(C)(C)SC [test1008],-9.8 kcal/mol,,
CCOC=O [Compound 0092ethb],-2.65 kcal/mol,,
CCCCCCCC(=O)OC [Compound 0238met],-2.04 kcal/mol,,
CNC(=O)ON=C(C)SC [test1037],-10.7 kcal/mol,,
c1ccsc1 [Compound 0245thi],-1.42 kcal/mol,,
"O=C(O)C(Cl)Cl [i120, dichloroaceticacid, reference compound]",,,Exp. ΔGsolv [2]: -62.30 kcal/mol
CC(=O)Nc1ccccc1O [test3004],-11.61 kcal/mol,,
C1CNC1 [Compound 0105aze],-5.56 kcal/mol,,
CCOP(=S)(OCC)SCSc1ccc(Cl)cc1 [test1017],,-6.5 kcal/mol,
N#Cc1cc(Br)c(O)c(Br)c1 [Compound 0425dbr],-9 kcal/mol,,
Cc1[nH]c(=O)n(C(C)(C)C)c(=O)c1Cl [test1052],-11.1 kcal/mol,,
